According to patent US6737383B1, “Herbicidal oxadiazolidines” (priority 1999, dated 2004):

What was measured:
[1] = test system: giant foxtail; experiment: Test B pre/postemergence giant foxtail; assay type: in vivo, Setaria faberii
Procedure, shortened: (§1)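 Response is a visual 0-to-10 score relative to untreated plants, where 0 means no effect and 10 means complete control, taken twelve to sixteen days after application. Treatments went onto soil at planting and onto foliage of 1- to 4-leaf plants, using a surfactant-containing non-phytotoxic solvent.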

[2] = test system: velvetleaf; experiment: Test B pre/postemergence velvetleaf; assay type: in vivo, Abutilon theophrasti
Procedure, shortened: as §1

[3] = test system: duck salad; experiment: Test B flood test duck salad; assay type: in vivo, Heteranthera limosa
Procedure, shortened: (§2)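 Plants were grown to the 2-leaf stage before treatment with test chemical, then held in a greenhouse for twelve to sixteen days. Injury was visually rated against untreated controls on a 0–10 scale, where 0 is no effect and 10 is complete control.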

[4] = test system: surinam grass; experiment: Test B pre/postemergence surinam grass; assay type: in vivo, Brachiaria decumbens
Procedure, shortened: as §1

[5] = test system: bamyardgrass; experiment: Test B flood test barnyardgrass; assay type: in vivo, Echinochloa crus-galli
Procedure, shortened: as §2

[6] = test system: wheat; experiment: Test B pre/postemergence wheat; assay type: in vivo, Triticum aestivum
Procedure, shortened: as §1

[7] = test system: corn; experiment: Test B pre/postemergence corn; assay type: in vivo, Zea mays
Procedure, shortened: as §1

[8] = test system: smallflower flatsedge; experiment: Test B flood test smallflower flatsedge; assay type: in vivo, Cyperus difformis
Procedure, shortened: as §2

[9] = test system: rape; experiment: Test B pre/postemergence rape; assay type: in vivo, Brassica napus
Procedure, shortened: as §1

[10] = test system: morningglory; experiment: Test B pre/postemergence morningglory; assay type: in vivo, Ipomoea hederacea
Procedure, shortened: as §1

[11] = test system: blackgrass; experiment: Test B pre/postemergence blackgrass; assay type: in vivo, Alopecurus myosuroides
Procedure, shortened: as §1

[12] = test system: soybean; experiment: Test B pre/postemergence soybean; assay type: in vivo, Glycine max
Procedure, shortened: as §1

[13] = test system: bedstraw; experiment: Test B pre/postemergence bedstraw; assay type: in vivo, Galium aparine
Procedure, shortened: as §1

[14] = test system: crabgrass; experiment: Test B pre/postemergence crabgrass; assay type: in vivo, Digitaria sanguinalis
Procedure, shortened: as §1

[15] = test system: wild oat; experiment: Test B pre/postemergence wild oat; assay type: in vivo, Avena fatua
Procedure, shortened: as §1

[16] = test system: cocklebur; experiment: Test B pre/postemergence cocklebur; assay type: in vivo, Xanthium strumarium
Procedure, shortened: as §1

[17] = Postemergence, Rate 1000 g/ha, scale 0 to 10 (0 no effect, 10 complete control)
[18] = Preemergence, Rate 62 g/ha, scale of 0 to 10 where 0 is no effect and 10 is complete control
[19] = Preemergence, Rate 125 g/ha, 0 is no effect, 10 is complete control
[20] = Preemergence, Rate 250 g/ha, scale 0 to 10, 0 is no effect, 10 is complete control
[21] = Preemergence, Rate 500 g/ha, scale 0 to 10 (0 no effect, 10 complete control)
[22] = Rate 62 g/ha, Postemergence, scale of 0 to 10 where 0 is no effect and 10 is complete control
[23] = Rate 125 g/ha, Postemergence, scale 0 to 10
[24] = Rate 500 g/ha, Postemergence, scale 0 to 10
[25] = Rate 1000 g/ha, Preemergence, scale 0 to 10 (0 no effect, 10 complete control)
[26] = Rate 2000 g/ha, Postemergence, scale 0 to 10
[27] = Rate 2000 g/ha, Preemergence, scale 0 to 10
[28] = Rate 62 g/ha, headed Pre-emergence (flood test species), scale 0 to 10 (0 no effect, 10 complete control)
[29] = Rate 125 g/ha, Pre-emergence, flood test species, scale 0 to 10 where 0 is no effect and 10 is complete control
[30] = Rate 250 g/ha, Pre-emergence, flood-test species, scale 0 to 10, 0 is no effect, 10 is complete control
[31] = Rate 500 g/ha, headed Pre-emergence (flood test species), scale 0 to 10 (0 no effect, 10 complete control)
[32] = Rate 1000 g/ha, Pre-emergence (as headed), scale 0 to 10
[33] = Rate 2000 g/ha, Pre-emergence (as headed), scale 0 to 10

CCN(C(=O)n1oc(=O)n(N(C)c2ccccc2)c1=O)C1CCCCC1 [Compound 183]
4: B. signalgrass plant response rating [4, 20] | B. signalgrass plant response rating [4, 21] | Morningglory plant response rating [10, 17]
1: Velvetleaf plant response rating [2, 17] | Velvetleaf plant response rating [2, 26] | Plant response rating (0 to 10; 0 is no effect, 10 is complete control), Morningglory ([10]; Rate 250 g/ha, Postemergence) | Plant response rating, Blackgrass [11, 25] | Soybean plant response rating [12, 23]
2: B. signalgrass plant response rating [4, 27] | Morningglory plant response rating [10, 24] | Blackgrass plant response rating [11, 27] | Soybean plant response rating [12, 17] | Plant response rating (0 to 10; 0 is no effect, 10 is complete control), Soybean ([12]; Rate 250 g/ha, Postemergence) | Soybean plant response rating [12, 24] | Crabgrass plant response rating [14, 27] | Cocklebur plant response rating [16, 26]
7: Bedstraw plant response rating [13, 21] | Plant response rating (0 to 10; 0 is no effect, 10 is complete control), Bedstraw ([13]; Rate 250 g/ha, Postemergence) | Plant response rating, Bedstraw [13, 25]
6: Plant response rating, Giant foxtail [1, 25]
0: Giant foxtail plant response rating [1, 17] | Giant foxtail plant response rating [1, 18] | Giant foxtail plant response rating (0 to 10 scale) [1, 19] | Giant foxtail plant response rating [1, 20] | Giant foxtail plant response rating [1, 22] | Giant foxtail plant response rating [1, 23] | Plant response rating (0 to 10; 0 is no effect, 10 is complete control), Giant foxtail ([1]; Rate 250 g/ha, Postemergence) | Giant foxtail plant response rating [1, 24] | Giant foxtail plant response rating [1, 26] | Velvetleaf plant response rating [2, 18] | Velvetleaf plant response rating [2, 20] | Velvetleaf plant response rating [2, 21] | Velvetleaf plant response rating [2, 23] | Plant response rating (0 to 10; 0 is no effect, 10 is complete control), Velvetleaf ([2]; Rate 250 g/ha, Postemergence) | Velvetleaf plant response rating [2, 24] | Plant response rating, Velvetleaf [2, 25] | Velvetleaf plant response rating [2, 27] | Ducksalad plant response rating [3, 28] | Ducksalad plant response rating [3, 29] | Ducksalad plant response rating [3, 30] | Plant response rating, Ducksalad [3, 31] | Ducksalad plant response rating [3, 32] | Ducksalad plant response rating [3, 33] | B. signalgrass plant response rating [4, 17] | B. signalgrass plant response rating [4, 18] | B. signalgrass plant response rating (0 to 10 scale) [4, 19] | B. signalgrass plant response rating [4, 22] | B. signalgrass plant response rating ([4]; Rate 125 g/ha, Postemergence, scale 0 (no effect) to 10 (complete control)) | Plant response rating, B. signalgrass ([4]; Rate 250 g/ha, Postemergence, scale 0 to 10, 0 is no effect, 10 is complete control) | B. signalgrass plant response rating ([4]; Rate 500 g/ha, Postemergence, scale 0 to 10, 0 no effect, 10 complete control) | Plant response rating, B. signalgrass [4, 25] | B. signalgrass plant response rating [4, 26] | Barnyardgrass plant response rating [5, 28] | Barnyardgrass plant response rating [5, 29] | Barnyardgrass plant response rating [5, 30] | Plant response rating, Barnyardgrass [5, 31] | Barnyardgrass plant response rating [5, 32] | Barnyardgrass plant response rating ([5]; Rate 2000 g/ha, Pre-emergence (as headed), scale 0 to 10, 0 no effect, 10 complete control) | Wheat plant response rating [6, 17] | Wheat plant response rating [6, 18] | Wheat plant response rating [6, 20] | Wheat plant response rating [6, 21] | Wheat plant response rating [6, 23] | Plant response rating (0 to 10; 0 is no effect, 10 is complete control), Wheat ([6]; Rate 250 g/ha, Postemergence) | Wheat plant response rating [6, 24] | Plant response rating, Wheat [6, 25] | Wheat plant response rating [6, 26] | Wheat plant response rating [6, 27] | Corn plant response rating [7, 17] | Corn plant response rating [7, 18] | Corn plant response rating (0 to 10 scale) [7, 19] | Corn plant response rating [7, 20] | Corn plant response rating [7, 21] | Corn plant response rating [7, 22] | Corn plant response rating [7, 23] | Plant response rating (0 to 10; 0 is no effect, 10 is complete control), Corn ([7]; Rate 250 g/ha, Postemergence) | Corn plant response rating [7, 24] | Plant response rating, Corn [7, 25] | Corn plant response rating [7, 26] | Corn plant response rating [7, 27] | S. Flatsedge plant response rating ([8]; Pre-emergence, Rate 1000 g/ha, scale 0 to 10 (0 no effect, 10 complete control)) | S. Flatsedge plant response rating [8, 28] | S. Flatsedge plant response rating [8, 29] | S. Flatsedge plant response rating [8, 30] | S. Flatsedge plant response rating ([8]; Rate 500 g/ha, Pre-emergence, flood test species, scale 0 to 10 (0 no effect, 10 complete control)) | S. Flatsedge plant response rating [8, 33] | Rape plant response rating [9, 17] | Rape plant response rating [9, 18] | Rape plant response rating (0 to 10 scale) [9, 19] | Rape plant response rating [9, 20] | Rape plant response rating [9, 21] | Rape plant response rating [9, 22] | Rape plant response rating [9, 23] | Plant response rating (0 to 10; 0 is no effect, 10 is complete control), Rape ([9]; Rate 250 g/ha, Postemergence) | Rape plant response rating [9, 24] | Plant response rating, Rape [9, 25] | Rape plant response rating [9, 26] | Rape plant response rating [9, 27] | Morningglory plant response rating [10, 18] | Morningglory plant response rating (0 to 10 scale) [10, 19] | Morningglory plant response rating [10, 20] | Morningglory plant response rating [10, 21] | Morningglory plant response rating [10, 22] | Morningglory plant response rating [10, 23] | Plant response rating, Morningglory [10, 25] | Morningglory plant response rating [10, 27] | Blackgrass plant response rating [11, 17] | Blackgrass plant response rating [11, 18] | Blackgrass plant response rating (0 to 10 scale) [11, 19] | Blackgrass plant response rating [11, 20] | Blackgrass plant response rating [11, 21] | Blackgrass plant response rating [11, 22] | Blackgrass plant response rating [11, 23] | Plant response rating (0 to 10; 0 is no effect, 10 is complete control), Blackgrass ([11]; Rate 250 g/ha, Postemergence) | Blackgrass plant response rating [11, 24] | Blackgrass plant response rating [11, 26] | Soybean plant response rating [12, 18] | Soybean plant response rating (0 to 10 scale) [12, 19] | Soybean plant response rating [12, 20] | Soybean plant response rating [12, 21] | Soybean plant response rating [12, 22] | Plant response rating, Soybean [12, 25] | Soybean plant response rating [12, 27] | Bedstraw plant response rating [13, 18] | Bedstraw plant response rating (0 to 10 scale) [13, 19] | Bedstraw plant response rating [13, 20] | Bedstraw plant response rating [13, 22] | Bedstraw plant response rating [13, 23] | Crabgrass plant response rating [14, 17] | Crabgrass plant response rating [14, 18] | Crabgrass plant response rating (0 to 10 scale) [14, 19] | Crabgrass plant response rating [14, 20] | Crabgrass plant response rating [14, 22] | Crabgrass plant response rating [14, 23] | Plant response rating (0 to 10; 0 is no effect, 10 is complete control), Crabgrass ([14]; Rate 250 g/ha, Postemergence) | Crabgrass plant response rating [14, 24] | Plant response rating, Crabgrass [14, 25] | Crabgrass plant response rating [14, 26] | Wild oats plant response rating [15, 17] | Wild oats plant response rating [15, 18] | Wild oats plant response rating [15, 20] | Wild oats plant response rating [15, 21] | Wild oats plant response rating [15, 23] | Plant response rating (0 to 10; 0 is no effect, 10 is complete control), Wild oats ([15]; Rate 250 g/ha, Postemergence) | Wild oats plant response rating [15, 24] | Plant response rating, Wild oats [15, 25] | Wild oats plant response rating [15, 26] | Cocklebur plant response rating [16, 17] | Cocklebur plant response rating [16, 18] | Cocklebur plant response rating (0 to 10 scale) [16, 19] | Cocklebur plant response rating [16, 20] | Cocklebur plant response rating [16, 21] | Cocklebur plant response rating [16, 22] | Cocklebur plant response rating [16, 23] | Plant response rating (0 to 10; 0 is no effect, 10 is complete control), Cocklebur ([16]; Rate 250 g/ha, Postemergence) | Cocklebur plant response rating [16, 24] | Plant response rating, Cocklebur [16, 25] | Cocklebur plant response rating [16, 27]
5: Morningglory plant response rating [10, 26]
9: Giant foxtail plant response rating [1, 27]
3: Giant foxtail plant response rating [1, 21] | Soybean plant response rating [12, 26] | Bedstraw plant response rating [13, 24] | Crabgrass plant response rating [14, 21] | Wild oats plant response rating [15, 27]
10: Bedstraw plant response rating [13, 27]
